According to patent US20140120087A1, “TRIAZOLOPYRIDINES” (BAYER INTELLECTUAL PROPERTY GMBH, priority 2011, published 2014):

Columns and labels:
[1] = Hydrolytic stability assay at pH 2; assay type: physicochemical; details: buffer pH 2, 37° C., compounds of the invention
Description: The hydrolytic stability assay investigates the stability of a compound in an aqueous buffer system. Standard solution stability assay is run in 0.05 M Phosphate buffer at pH 7.4 (pH of blood plasma) at 37° C. As compounds in the GI tract are exposed to a wide variety of pHs any relevant pH (as pH 2 to simulate the acidic condition of the GI tract in the following experiment) can be chosen. Compounds are incubated in relevant solution at 37° C. and analyzed by HPLC immediately after incubation and after 1, 2 and 24 hrs. Degradation rate (decay in %) is calculated by relating peak areas after 1, 2 and 24 hrs to the time zero injection.
Compound is available as 10 mM in DMSO (solution 1). 2.5 μL of solution 1 is dissolved in 1 mL acetonitrile leading to solution 2. Poorly soluble compounds may demand another dilution step of solution 2 (1:5 and 1:10 respectively) in Acetonitrile). Solution 2 is incubated at 37° C. in a tempered HPLC autosampler. 1 mL buffer pH 2 is transferred into an HPLC vial. 100 μL of solution 2 is added to the buffer pH 2 solution and mixed thoroughly. Immediately after mixing the combined solution is injected into the HPLC to give the time zero injection. Injections are repeated after 1, 2 and 24 hrs.
The degradation rate (decay in %) is calculated using HPLC software Millennium and Excel respectively.

Mps-1 kinase [2] = target: T1, Mps-1 kinase (Homo sapiens, UniProt P33981); assay: Mps-1 kinase assay with 10 μM ATP (TR-FRET)
T1 sequence (P33981 1-857): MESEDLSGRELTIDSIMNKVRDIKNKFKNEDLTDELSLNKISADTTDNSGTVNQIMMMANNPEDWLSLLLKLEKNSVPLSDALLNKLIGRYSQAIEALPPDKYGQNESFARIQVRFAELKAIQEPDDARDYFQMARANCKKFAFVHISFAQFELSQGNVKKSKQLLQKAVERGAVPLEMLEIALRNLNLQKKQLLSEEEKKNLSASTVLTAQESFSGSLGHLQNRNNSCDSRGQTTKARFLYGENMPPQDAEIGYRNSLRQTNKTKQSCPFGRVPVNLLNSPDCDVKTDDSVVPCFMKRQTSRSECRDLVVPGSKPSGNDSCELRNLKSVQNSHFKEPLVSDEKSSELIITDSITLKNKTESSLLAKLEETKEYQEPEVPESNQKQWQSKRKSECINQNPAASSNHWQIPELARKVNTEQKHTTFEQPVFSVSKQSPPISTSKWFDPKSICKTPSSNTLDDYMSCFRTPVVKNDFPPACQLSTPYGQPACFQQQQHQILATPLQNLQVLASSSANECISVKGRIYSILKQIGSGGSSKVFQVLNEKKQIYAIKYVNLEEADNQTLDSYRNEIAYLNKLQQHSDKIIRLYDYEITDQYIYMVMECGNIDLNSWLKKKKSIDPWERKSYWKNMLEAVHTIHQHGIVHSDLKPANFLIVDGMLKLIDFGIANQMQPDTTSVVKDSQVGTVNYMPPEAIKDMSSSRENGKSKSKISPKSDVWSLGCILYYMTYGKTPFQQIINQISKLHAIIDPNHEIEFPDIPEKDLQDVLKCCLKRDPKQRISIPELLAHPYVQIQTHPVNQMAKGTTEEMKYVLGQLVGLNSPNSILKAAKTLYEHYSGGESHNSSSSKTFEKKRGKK

Mps-1 kinase [3] = target: T1, Mps-1 kinase; assay: Mps-1 kinase assay with 2 mM ATP (TR-FRET)

With `CC(C)(O)CNC(=O)c1ccc(Nc2nc3ccc(-c4ccc(C(=O)NCc5ccc(F)cc5)cc4)cn3n2)c(OCC(F)(F)F)c1` [Example 02.22, 4-[(6-{4-[(4-fluorobenzyl)carbamoyl]phenyl}[1,2,4]triazolo[1,5-α]pyridin-2-yl)amino]-N-(2-hydroxy-2-methylpropyl)-3-(2,2,2-trifluoroethoxy)benzamide] the “Hydrolysis at pH 2; Decay in % after 24 h” value (“Hydrolysis … in % after 24 h” for short) [1] was under 10%, the IC50 (Mps-1 kinase [2]) was at most 1 nM and the IC50 (Mps-1 kinase [3]) was at most 1 nM.

For `CCN(CC)C(=O)c1ccc(Nc2nc3ccc(-c4ccc(NC(=O)Cc5ccc(F)cc5)cc4)cn3n2)c(OC(C)C)c1` [Example 01.25, N,N-diethyl-4-{[6-(4-{[(4-fluorophenyl)acetyl]amino}phenyl)[1,2,4]triazolo-[1,5-α]pyridin-2-yl]amino}-3-isopropoxybenzamide], the “Hydrolysis … in % after 24 h” value [1] was under 10%, the IC50 (Mps-1 kinase [2]) was at most 1 nM and the IC50 (Mps-1 kinase [3]) was 1.3 nM.

For `CCOc1cc(C(=O)NCC(C)(C)O)ccc1Nc1nc2ccc(-c3ccc(NC(=O)Cc4ccc(F)cc4)cc3)cn2n1` [Example 01.17, 3-ethoxy-4-{[6-(4-{[(4-fluorophenyl)acetyl]amino}phenyl)[1,2,4]triazolo-[1,5-α]pyridin-2-yl]amino}-N-(2-hydroxy-2-methylpropyl)benzamide], the “Hydrolysis … in % after 24 h” value [1] was under 10%, the IC50 (Mps-1 kinase [2]) was at most 1 nM and the IC50 (Mps-1 kinase [3]) was at most 1 nM.

With `COc1cc(C(=O)NC(C)(C)CO)ccc1Nc1nc2ccc(-c3ccc(NC(=O)Cc4ccc(F)cc4)cc3)cn2n1` [Example 01.13, 4-{[6-(4-{[(4-fluorophenyl)acetyl]amino}phenyl)[1,2,4]triazolo[1,5-α]-pyridin-2-yl]amino}-N-(1-hydroxy-2-methylpropan-2-yl)-3-methoxy-benzamide] the “Hydrolysis … in % after 24 h” value [1] was under 10%, the IC50 (Mps-1 kinase [2]) was at most 1 nM and the IC50 (Mps-1 kinase [3]) was at most 1 nM.

With `CCOc1cc(C(=O)NC(C)(C)C)ccc1Nc1nc2ccc(-c3ccc(C(=O)NCc4ccc(F)cc4)cc3)cn2n1` [Example 02.21, N-tert-butyl-3-ethoxy-4-[(6-{4-[(4-fluorobenzyl)carbamoyl]phenyl}[1,2,4]-triazolo[1,5-α]pyridin-2-yl)amino]benzamide] the “Hydrolysis … in % after 24 h” value [1] was under 10%, the IC50 (Mps-1 kinase [2]) was at most 1 nM and the IC50 (Mps-1 kinase [3]) was 2.4 nM.

In the case of `CCN(CC)C(=O)c1ccc(Nc2nc3ccc(-c4ccc(NC(=O)Cc5ccc(F)cc5)cc4)cn3n2)c(OCCOC)c1` [Example 01.26, N,N-diethyl-4-{[6-(4-{[(4-fluorophenyl)acetyl]amino}phenyl)[1,2,4]triazolo-[1,5-α]pyridin-2-yl]amino}-3-(2-methoxyethoxy)benzamide], the “Hydrolysis … in % after 24 h” value [1] is reported as under 10%, the IC50 (Mps-1 kinase [2]) is reported as at most 1 nM and the IC50 (Mps-1 kinase [3]) is reported as 21 nM.

In the case of `CCOc1cc(C(=O)NCCO)ccc1Nc1nc2ccc(-c3ccc(NC(=O)Cc4ccc(F)cc4)cc3)cn2n1` [Example 01.8, 3-ethoxy-4-{[6-(4-{[(4-fluorophenyl)acetyl]amino}phenyl)[1,2,4]triazolo-[1,5-α]pyridin-2-yl]amino}-N-(2-hydroxyethyl)benzamide], the “Hydrolysis … in % after 24 h” value [1] is reported as under 10%, the IC50 (Mps-1 kinase [2]) is reported as at most 1 nM and the IC50 (Mps-1 kinase [3]) is reported as at most 1 nM.

For `CCN(CC)C(=O)c1ccc(Nc2nc3ccc(-c4ccc(NC(=O)Cc5ccc(F)cc5)cc4)cn3n2)c(OCC(F)(F)F)c1` [Example 01.22, N,N-diethyl-4-{[6-(4-{[(4-fluorophenyl)acetyl]amino}phenyl)[1,2,4]triazolo-[1,5-α]pyridin-2-yl]amino}-3-(2,2,2-trifluoroethoxy)benzamide], the “Hydrolysis … in % after 24 h” value [1] was under 10%, the IC50 (Mps-1 kinase [2]) was at most 1 nM and the IC50 (Mps-1 kinase [3]) was at most 1 nM.

For `CCOc1cc(C(=O)NCCS(C)(=O)=O)ccc1Nc1nc2ccc(-c3ccc(NC(=O)Cc4ccc(F)cc4)cc3)cn2n1` [Example 01.28, 3-ethoxy-4-{[6-(4-{[(4-fluorophenyl)acetyl]amino}phenyl)[1,2,4]triazolo-[1,5-α]pyridin-2-yl]amino}-N-[2-(methylsulfonyl)ethyl]benzamide], the “Hydrolysis … in % after 24 h” value [1] was under 10%, the IC50 (Mps-1 kinase [2]) was at most 1 nM and the IC50 (Mps-1 kinase [3]) was at most 1 nM.

With `CCNC(=O)c1ccc(Nc2nc3ccc(-c4ccc(C(=O)NCc5cccc(F)c5)cc4)cn3n2)c(OC)c1` [Example 07.1, N-ethyl-4-[(6-{4-[(3-fluorobenzyl)carbamoyl]phenyl}[1,2,4]triazolo[1,5-α]-pyridin-2-yl)amino]-3-methoxybenzamide] the “Hydrolysis … in % after 24 h” value [1] was under 10%, the IC50 (Mps-1 kinase [2]) was at most 1 nM and the IC50 (Mps-1 kinase [3]) was 14 nM.

With `CCOc1cc(C(=O)NC(C)(C)CO)ccc1Nc1nc2ccc(-c3ccc(NC(=O)Cc4ccc(F)cc4)cc3)cn2n1` [Example 01.9, 3-ethoxy-4-{[6-(4-{[(4-fluorophenyl)acetyl]amino}phenyl)[1,2,4]triazolo-[1,5-α]pyridin-2-yl]amino}-N-(1-hydroxy-2-methylpropan-2-yl)benzamide] the “Hydrolysis … in % after 24 h” value [1] was under 10%, the IC50 (Mps-1 kinase [2]) was at most 1 nM and the IC50 (Mps-1 kinase [3]) was at most 1 nM.

In the case of `CCOc1cc(C(=O)N(C)CCO)ccc1Nc1nc2ccc(-c3ccc(NC(=O)Cc4ccc(F)cc4)cc3)cn2n1` [Example 01.19, 3-ethoxy-4-{[6-(4-{[(4-fluorophenyl)acetyl]amino}phenyl)[1,2,4]triazolo-[1,5-α]pyridin-2-yl]amino}-N-(2-hydroxyethyl)-N-methylbenzamide], the “Hydrolysis … in % after 24 h” value [1] is reported as under 10%, the IC50 (Mps-1 kinase [2]) is reported as at most 1 nM and the IC50 (Mps-1 kinase [3]) is reported as at most 1 nM.

With `CCOc1cc(C(=O)NCCS(C)(=O)=O)ccc1Nc1nc2ccc(-c3ccc(C(=O)NCc4ccc(F)cc4)cc3)cn2n1` [Example 02.19, 3-ethoxy-4-[(6-{4-[(4-fluorobenzyl)carbamoyl]phenyl}[1,2,4]triazolo[1,5-α]pyridin-2-yl)amino]-N-[2-(methylsulfonyl)ethyl]benzamide] the “Hydrolysis … in % after 24 h” value [1] was under 10%, the IC50 (Mps-1 kinase [2]) was at most 1 nM and the IC50 (Mps-1 kinase [3]) was at most 1 nM.

With `CCOc1cc(C(=O)NC(C)(C)CO)ccc1Nc1nc2ccc(-c3ccc(C(=O)NCc4ccc(F)cc4)cc3)cn2n1` [Example 02.3, 3-ethoxy-4-[(6-{4-[(4-fluorobenzyl)carbamoyl]phenyl}[1,2,4]triazolo[1,5-α]pyridin-2-yl)amino]-N-(1-hydroxy-2-methylpropan-2-yl)benzamide] the “Hydrolysis … in % after 24 h” value [1] was under 10%, the IC50 (Mps-1 kinase [2]) was at most 1 nM and the IC50 (Mps-1 kinase [3]) was at most 1 nM.

For `CCOc1cc(C(=O)N(CC)CCOC)ccc1Nc1nc2ccc(-c3ccc(C(=O)NCC4CC4)cc3)cn2n1` [Example 06.2, 4-[(6-{4-[(cyclopropylmethyl)carbamoyl]phenyl}[1,2,4]triazolo[1,5-α]-pyridin-2-yl)amino]-3-ethoxy-N-ethyl-N-(2-methoxyethyl)benzamide], the “Hydrolysis … in % after 24 h” value [1] was under 10%, the IC50 (Mps-1 kinase [2]) was 1.4 nM and the IC50 (Mps-1 kinase [3]) was 26 nM.

For `CCNC(=O)c1ccc(Nc2nc3ccc(-c4ccc(C(=O)NCC5CC5)cc4)cn3n2)c(OCC(F)(F)F)c1` [Example 06.5, 4-[(6-{4-[(cyclopropylmethyl)carbamoyl]phenyl}[1,2,4]triazolo[1,5-α]-pyridin-2-yl)amino]-N-ethyl-3-(2,2,2-trifluoroethoxy)benzamide], the “Hydrolysis … in % after 24 h” value [1] was under 10%, the IC50 (Mps-1 kinase [2]) was at most 1 nM and the IC50 (Mps-1 kinase [3]) was 19 nM.

With `CCOc1cc(C(=O)NCCO)ccc1Nc1nc2ccc(-c3ccc(C(=O)NCC4CC4)cc3)cn2n1` [Example 06.3, 4-[(6-{4-[(cyclopropylmethyl)carbamoyl]phenyl}[1,2,4]triazolo[1,5-α]-pyridin-2-yl)amino]-3-ethoxy-N-(2-hydroxyethyl)benzamide] the “Hydrolysis … in % after 24 h” value [1] was under 10%, the IC50 (Mps-1 kinase [2]) was at most 1 nM and the IC50 (Mps-1 kinase [3]) was 21 nM.
